{"source": "patent US20090325863A1", "about": "“Somatostatin analogs and IGF-I inhibition for breast cancer prevention” (priority 2008, published 2009)", "key": {"[1]": {"test_system": "TUNEL labeled cells in mammary gland", "test": "Apoptosis by TUNEL staining in mammary gland, hGH+E2 model", "type": "in vivo, rat", "conditions": "for % TUNEL labeled cells, DH structure Mod + mild / % TUNEL labeled cells, Normal gland: 3 animals, 7 days; for % TUNEL labeled cells, DH structure Mod + mild: hGH + E2 control 1.9 ± 0.2 (P < 0.002); for % TUNEL labeled cells, Normal gland: hGH + E2 control 2.3 ± 0.1 (P < 0.001); for apoptosis / cell death (in words): hGH+E2 model versus hGH+E2 control", "excerpt": "We also looked at the effect of the various treatment regimens on apoptosis. GH+E2 inhibited apoptosis, with the results are as follows. […] The percent TUNEL labeled cells is depicted in TABLE 5 below."}, "[2]": {"test_system": "Ki67 positive cells in mammary gland", "test": "Cell proliferation by Ki67 immunostaining in mammary gland, hGH+E2 model", "type": "in vivo, rat", "conditions": "for % Ki67 positive cells, Normal gland / % Ki67 positive cells, DH structure Mod + mild: 3 animals; for % Ki67 positive cells, Normal gland: hGH + E2 control 5.1 ± 0.1; for % Ki67 positive cells, DH structure Mod + mild: hGH + E2 control 22.5 ± 1.6 (P < 0.05); for cell proliferation / Ki67 staining (in words): hGH+E2 model versus hGH+E2 control", "description": "The histological sections were also analyzed for cell proliferation by Ki67 immunostaining and for apoptosis by TUNEL. Twenty five percent of cells in areas of florid hyperplasia were stained for Ki67. […] When the glands were normal and not hyperplastic, only 5.1% stained for Ki67. […] The immunostaining for Ki67 can be seen in FIG. 3.\nWe next determined the effects of the various treatment regimens on cell proliferation as assessed by Ki67 immunostaining. […] The percent Ki67 positive cells is depicted in TABLE 4 below."}, "SSTR-3": {"biological_target": "SSTR-3 (Homo sapiens, UniProt P32745)", "sequence (P32745 whole entry, species assumed)": "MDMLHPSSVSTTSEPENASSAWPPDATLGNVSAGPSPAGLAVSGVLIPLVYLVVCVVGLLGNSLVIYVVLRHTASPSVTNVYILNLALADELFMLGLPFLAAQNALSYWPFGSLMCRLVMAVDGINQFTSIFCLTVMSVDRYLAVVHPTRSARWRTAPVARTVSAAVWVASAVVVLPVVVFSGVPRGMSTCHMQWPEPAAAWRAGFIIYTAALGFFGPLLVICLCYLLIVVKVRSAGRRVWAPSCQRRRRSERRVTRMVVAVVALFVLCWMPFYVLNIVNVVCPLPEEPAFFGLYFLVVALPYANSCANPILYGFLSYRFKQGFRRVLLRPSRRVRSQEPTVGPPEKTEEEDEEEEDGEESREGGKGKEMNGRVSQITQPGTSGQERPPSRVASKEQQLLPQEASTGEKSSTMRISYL", "conditions": "cited from earlier work"}, "mammary development": {"test_system": "mammary development", "conditions": "rats; Ruan et al (2006); cited from earlier work"}, "[3]": {"test_system": "mast cells in mammary glands", "test": "Mast cells and mammary development in normally developing rats treated from day 21 to 28", "type": "in vivo, rat", "conditions": "for Mast cell density stromal / Mast cell density around glands: 28 day old rats treated from day 21, 3 animals; for Mast cell density stromal: normal 3.5 ± 0.8; for Mast cell density around glands: normal 11.5 ± 1.6", "excerpt": "We have found for the first time that mast cells play a role in normal mammary development. Mast cells appear around developing mammary gland structures in rats. […] The same animals when they were 21 days old were given SOM230. […] The mast cells are found directly around the developing glands in the stromal compartment.\nOverall, the number of mast cells/mm^2 was reduced by SOM230 treatment, as per TABLE 7 below. Mast cells surrounding glands and those elsewhere in the stromal compartment were both reduced."}, "[4]": {"test_system": "pYIRS-1 (phosphorylated IRS-1), product of IGF-I action", "test": "Immunostaining for phosphorylated IRS-1 in mammary gland, hGH+E2 model", "type": "in vivo, rat", "conditions": "hGH+E2 treated animals; staining most intense with hGH+E2", "excerpt": "FIG. 12 depicts immunostaining for pYIRS-1 (phosphorylated IRS-1) in a representative E2 treated control (upper left), an hGH+E2 treated animal (upper right), an hGH+E2+SOM230 treated animal (lower left) and an hGH+E2+tamoxifen treated animal (lower right). The intensity of staining parallels IGF-I action as phosphorylated IRS-1 is a product of IGF-I action. In this study, staining (brown color) was most intense in response to hGH+E2 and was inhibited by both SOM230 and tamoxifen. […] This reflection of inhibition of IGF-I activity also supports the greater inhibitory effect of SOM230 over that of tamoxifen."}, "SSTR-5": {"biological_target": "SSTR-5 (Homo sapiens, UniProt P35346)", "sequence (P35346 whole entry, species assumed)": "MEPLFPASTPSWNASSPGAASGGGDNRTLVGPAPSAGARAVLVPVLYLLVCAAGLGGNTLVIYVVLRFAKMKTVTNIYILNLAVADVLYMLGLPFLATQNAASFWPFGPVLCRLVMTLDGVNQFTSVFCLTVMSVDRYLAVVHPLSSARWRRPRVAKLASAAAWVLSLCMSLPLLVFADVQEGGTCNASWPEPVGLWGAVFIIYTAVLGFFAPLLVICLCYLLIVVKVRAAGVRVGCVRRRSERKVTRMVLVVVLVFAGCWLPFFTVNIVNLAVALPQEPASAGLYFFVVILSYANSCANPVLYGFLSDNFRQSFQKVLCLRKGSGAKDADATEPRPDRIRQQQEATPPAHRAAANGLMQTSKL", "conditions": "cited from earlier work"}}, "note": "Entries after “also recorded” stand apart in the source; their conditions may differ. Marks after values point to notes of the source that are not given here. *1 amine or outer side, *2 acyl side, *3 side chain or, on linkers, in order; H or OH if unused. Where a SMILES comes first, the peptide text is derived from it. Side-chain parts run from the residue outwards. [ ]: non-standard residue; d: D form. The star is where a group is joined. Ethylenediamine = C(CN[*:2])N[*:1]; Hyp = O=C(O)[C@@H]1C[C@@H](O)CN1; Phg = N[C@H](C(=O)O)c1ccccc1; CO = O=C([*:1])[*:2]; Bn = c1ccc(C*)cc1"}
{"smiles": "NCCCC[C@@H]1NC(=O)[C@@H](Cc2c[nH]c3ccccc23)NC(=O)[C@H](c2ccccc2)NC(=O)[C@@H]2C[C@@H](OC(=O)NCCN)CN2C(=O)[C@H](Cc2ccccc2)NC(=O)[C@H](Cc2ccc(OCc3ccccc3)cc2)NC1=O", "note": "[SOM230] (cyclo([Hyp]([CO-Ethylenediamine])[Phg][dW]KY(Bn)F))", "values": [{"measurement": "% TUNEL labeled cells, DH structure Mod + mild", "setting": "[1]", "value": "increase in apoptosis"}, {"measurement": "% TUNEL labeled cells, DH structure Mod + mild", "setting": "[1]; listed as SOM", "value": "5.5 ± 0.4", "unit": "%"}, {"measurement": "% TUNEL labeled cells, Normal gland", "setting": "[1]", "value": "increase in apoptosis"}, {"measurement": "% TUNEL labeled cells, Normal gland", "setting": "[1]; listed as SOM", "value": "6.5 ± 0.4", "unit": "%"}, {"measurement": "apoptosis / cell death (in words)", "setting": "[1]", "value": "increase in cell death; also recorded: increase in apoptosis; also recorded: more apoptosis"}, {"measurement": "apoptosis / cell death (in words)", "setting": "[1]; listed as SOM 230", "value": "increase in apoptosis"}, {"measurement": "% Ki67 positive cells, Normal gland", "setting": "[2]", "value": "no significant reduction"}, {"measurement": "% Ki67 positive cells, Normal gland", "setting": "[2]; listed as SOM", "value": "4.3 ± 0.4", "unit": "%"}, {"measurement": "% Ki67 positive cells, DH structure Mod + mild", "setting": "[2]", "value": 14.2, "unit": "%"}, {"measurement": "% Ki67 positive cells, DH structure Mod + mild", "setting": "[2]; listed as SOM", "value": "14.2 ± 2.5", "unit": "%"}, {"measurement": "cell proliferation / Ki67 staining (in words)", "setting": "[2]", "value": "reduction in cell proliferation; also recorded: decrease in Ki67 staining"}, {"measurement": "cell proliferation / Ki67 staining (in words)", "setting": "[2]; listed as SOM 230", "value": "remarkable decrease in cell division"}, {"measurement": "affinity for SSTR-3", "setting": "SSTR-3", "value": "has affinity"}, {"measurement": "IRS-1 phosphorylation in the mammary gland", "setting": "mammary development", "value": "reduction in IRS-1 phosphorylation"}, {"measurement": "mammary development", "setting": "mammary development", "value": "prevents mammary development"}, {"measurement": "Mast cell density stromal", "setting": "[3]", "value": "reduced"}, {"measurement": "Mast cell density stromal", "setting": "[3]; listed as SOM", "value": "1.1 ± 0.3^d MC#/1 mm^2"}, {"measurement": "Mast cell density around glands", "setting": "[3]", "value": "reduced"}, {"measurement": "Mast cell density around glands", "setting": "[3]; listed as SOM", "value": "3.7 ± 0.7^b MC#/1 mm^2"}, {"measurement": "micro vessel density", "setting": "[3]; normally developing glands versus SOM230 treated", "value": "greater in glands that were developing normally"}, {"measurement": "mammary development", "setting": "[3]; normally developing rats treated from day 21 to 28", "value": "inhibit mammary development"}, {"measurement": "intensity of pYIRS-1 immunostaining", "setting": "[4]", "value": "inhibited"}, {"measurement": "affinity for SSTR-5", "setting": "SSTR-5", "value": "has affinity"}]}
